ChEMBL document CHEMBL1141547, “Investigations of the esterase, phosphatase, and sulfatase activities of the cytosolic mammalian carbonic anhydrase isoforms I, II, and XIII with 4-nitrophenyl esters as substrates” (Bioorg Med Chem Lett, 2008)

Tests used:
[1] = target: T1, Carbonic anhydrase 13 (Mus musculus, UniProt Q9D6N1); assay: Inhibition of mouse carbonic anhydrase 13 assessed as 4-nitrophenyl phosphate hydrolysis
[2] = target: T1, Carbonic anhydrase 13; assay: Inhibition of mouse carbonic anhydrase 13 assessed as 4-nitrophenyl acetate hydrolysis

T1 sequence (Q9D6N1 whole entry): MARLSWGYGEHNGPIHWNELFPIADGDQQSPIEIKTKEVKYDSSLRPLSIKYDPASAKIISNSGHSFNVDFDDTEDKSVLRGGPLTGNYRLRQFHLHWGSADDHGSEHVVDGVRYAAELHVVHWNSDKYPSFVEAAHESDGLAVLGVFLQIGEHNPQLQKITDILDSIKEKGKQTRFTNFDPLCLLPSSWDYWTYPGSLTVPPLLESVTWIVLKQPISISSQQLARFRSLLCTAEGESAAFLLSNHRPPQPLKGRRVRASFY

For `CC(=O)Nc1nnc(S(N)(=O)=O)s1` [ACETAZOLAMIDE], the IC50 [1] was 1050 nM and the IC50 [2] was 490 nM.
